Measured values reported in patent publication US8680275B2, “Fused heterocyclic compounds as orexin receptor modulators” (Janssen Pharmaceutica NV, priority 2009, dated 2014).

Tests used:
human orexin-2 receptor = human orexin-2 receptor (Homo sapiens (Human), UniProt O43614); experiment: Human orexin 2 receptor radioligand binding ([3H]-EMPA competition); details: HEK293 cells stably expressing human orexin-2 receptor; [3H]-EMPA 5 nM final; read-out: OR-2 Ki
Method in brief: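 Competition binding on HEK293 cells stably expressing human orexin-2 receptor, using 5 nM final [3H]-EMPA in PBS, compounds 0.1 nM to 10 μM (DMSO ≤0.1%). 60 min at room temperature, then filtration and scintillation counting; nonspecific binding defined with 10 μM of a reference antagonist.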

human orexin 1 receptor = human orexin 1 receptor (Homo sapiens (Human), UniProt O43613); experiment: Human orexin 1 receptor radioligand binding ([3H]-SB674042 competition); details: CHO cells stably expressing human orexin 1 receptor; [3H]-SB674042 4 nM final; read-out: OR-1 Ki
Method in brief: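 CHO cells stably expressing human OX1R incubated 60 min at room temperature with [3H]-SB674042 and compounds (7 concentrations, 0.1 nM–10 μM; DMSO ≤0.1%) in PBS. Nonspecific binding defined with 10 μM of a reference urea antagonist; bound radioactivity measured by filtration and scintillation counting.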

Chain of human orexin 1 receptor (O43613 whole entry): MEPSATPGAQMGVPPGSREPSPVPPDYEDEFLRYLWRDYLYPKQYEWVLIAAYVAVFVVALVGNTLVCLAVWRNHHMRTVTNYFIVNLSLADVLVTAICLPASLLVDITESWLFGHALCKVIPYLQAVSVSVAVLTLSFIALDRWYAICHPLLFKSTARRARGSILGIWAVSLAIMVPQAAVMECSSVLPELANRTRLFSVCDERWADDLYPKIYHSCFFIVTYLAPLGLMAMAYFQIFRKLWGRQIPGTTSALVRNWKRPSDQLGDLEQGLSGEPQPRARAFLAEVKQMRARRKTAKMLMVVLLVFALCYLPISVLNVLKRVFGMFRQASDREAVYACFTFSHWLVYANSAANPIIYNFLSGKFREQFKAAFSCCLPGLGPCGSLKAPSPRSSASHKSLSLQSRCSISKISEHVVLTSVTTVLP
Chain of human orexin-2 receptor (O43614 whole entry): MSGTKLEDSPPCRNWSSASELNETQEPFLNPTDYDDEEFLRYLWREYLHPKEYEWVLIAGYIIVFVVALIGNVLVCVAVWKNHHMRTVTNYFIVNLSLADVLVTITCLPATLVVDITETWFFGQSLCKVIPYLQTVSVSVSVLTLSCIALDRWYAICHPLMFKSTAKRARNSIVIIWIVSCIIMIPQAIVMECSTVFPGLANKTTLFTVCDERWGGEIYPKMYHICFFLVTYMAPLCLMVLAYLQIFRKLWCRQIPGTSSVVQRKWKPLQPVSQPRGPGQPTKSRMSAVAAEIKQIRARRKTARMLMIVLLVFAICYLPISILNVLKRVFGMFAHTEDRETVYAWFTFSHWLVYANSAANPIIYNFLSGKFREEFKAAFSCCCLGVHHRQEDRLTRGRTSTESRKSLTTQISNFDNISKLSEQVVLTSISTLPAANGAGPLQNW

SMILES | Ki (human orexin-2 receptor) [nM] | Ki (human orexin 1 receptor) [nM]
Cc1cc(C)nc(N2C[C@@H]3CCN(C(=O)c4cc(F)ccc4-c4cncnc4)C[C@@H]32)n1 [Example 165, (1R,6S)-8-(4,6-Dimethylpyrimidin-2-yl)-3-[(5-fluoro-2-pyrimidin-5-ylphenyl)carbonyl]-3,8-diazabicyclo[4.2.0]octane] | 550 | 10000
Cc1cc(C)nc(N2C[C@@H]3CCN(C(=O)c4cc(F)ccc4-c4ccc(N(C)C)nc4)C[C@@H]32)n1 [Example 166, 5-(2-{[(1R,6S)-8-(4,6-Dimethylpyrimidin-2-yl)-3,8-diazabicyclo[4.2.0]oct-3-yl]carbonyl}-4-fluorophenyl)-N,N-dimethylpyridin-2-amine] | 72 | 3840
Cc1cc(C)nc(N2C[C@@H]3CCN(C(=O)c4cccc5c4-c4ccccc4C5)C[C@@H]32)n1 [Example 167, (1R,6S)-8-(4,6-Dimethylpyrimidin-2-yl)-3-(9H-fluoren-4-ylcarbonyl)-3,8-diazabicyclo[4.2.0]octane] | 55 | 219
Cc1cc(C)nc(N2C[C@@H]3CCN(C(=O)c4cccc5c4-c4ccccc4C5=O)C[C@@H]32)n1 [Example 168, 4-{[(1R,6S)-8-(4,6-Dimethylpyrimidin-2-yl)-3,8-diazabicyclo[4.2.0]oct-3-yl]carbonyl}-9H-fluoren-9-one] | 740 | 7300
Cc1cc(C)nc(N2C[C@@H]3CCN(C(=O)c4cc(F)ccc4-c4ccn[nH]4)C[C@@H]32)n1 [Example 171, (1R,6S)-8-(4,6-dimethylpyrimidin-2-yl)-3-{[5-fluoro-2-(1H-pyrazol-3-yl)phenyl]carbonyl}-3,8-diazabicyclo[4.2.0]octane] | 15 | 392
Cc1cc(C)nc(N2C[C@@H]3CCN(C(=O)c4nc(C)sc4-c4ccc(F)cc4)C[C@@H]32)n1 [Example 173, (1R,6S)-8-(4,6-Dimethylpyrimidin-2-yl)-3-{[5-(4-fluorophenyl)-2-methyl-1,3-thiazol-4-yl]carbonyl}-3,8-diazabicyclo[4.2.0]octane] | 62 | 2150
Cc1cc(C)nc(N2C[C@@H]3CCN(C(=O)c4cn[nH]c4-c4ccccc4)C[C@@H]32)n1 [Example 174, (1R,6S)-8-(4,6-Dimethylpyrimidin-2-yl)-3-[(5-phenyl-1H-pyrazol-4-yl)carbonyl]-3,8-diazabicyclo[4.2.0]octane] | 6000 | 10000
Cc1cc(C)nc(N2C[C@@H]3CCN(C(=O)c4c(-c5ccccc5)noc4C)C[C@@H]32)n1 [Example 175, (1R,6S)-8-(4,6-Dimethylpyrimidin-2-yl)-3-[(5-methyl-3-phenylisoxazol-4-yl)carbonyl]-3,8-diazabicyclo[4.2.0]octane] | 488 | 10000
Cc1cc(C)nc(N2C[C@@H]3CCN(C(=O)c4cnoc4-c4ccccc4)C[C@@H]32)n1 [Example 176, (1R,6S)-8-(4,6-Dimethylpyrimidin-2-yl)-3-[(5-phenylisoxazol-4-yl)carbonyl]-3,8-diazabicyclo[4.2.0]octane] | 1300 | 10000
Cc1cc(C)nc(N2C[C@@H]3CCN(C(=O)c4ncoc4-c4ccccc4F)C[C@@H]32)n1 [Example 177, (1R,6S)-8-(4,6-Dimethylpyrimidin-2-yl)-3-{[5-(2-fluorophenyl)-1,3-oxazol-4-yl]carbonyl}-3,8-diazabicyclo[4.2.0]octane] | 340 | 2400
Cc1cc(C)nc(N2C[C@@H]3CCN(C(=O)c4ncoc4-c4cccc(Cl)c4)C[C@@H]32)n1 [Example 178, (1R,6S)-3-{[5-(3-Chlorophenyl)-1,3-oxazol-4-yl]carbonyl}-8-(4,6-dimethylpyrimidin-2-yl)-3,8-diazabicyclo[4.2.0]octane] | 126 | 7000
Cc1cc(C)nc(N2C[C@@H]3CCN(C(=O)c4ncccc4-n4nccn4)C[C@@H]32)n1 [Example 183, (1R,6S)-8-(4,6-Dimethylpyrimidin-2-yl)-3-{[3-(2H-1,2,3-triazol-2-yl)pyridin-2-yl]carbonyl}-3,8-diazabicyclo[4.2.0]octane] | 200 | 10000
Nc1cc(N2C[C@@H]3CCN(C(=O)c4cc(F)ccc4-n4nccn4)C[C@@H]32)nc(N)n1 [Example 192, 6-[(1R,6S)-3-{[5-Fluoro-2-(2H-1,2,3-triazol-2-yl)phenyl]carbonyl}-3,8-diazabicyclo[4.2.0]oct-8-yl]pyrimidine-2,4-diamine] | 1400 | 10000

Second part, the molecule after the results:

Ki (human orexin-2 receptor) [nM] | Ki (human orexin 1 receptor) [nM] | SMILES
1100 | 10000 | Cc1cc(C)nc(N2C[C@@H]3CCN(C(=O)c4c(C)noc4-c4cc(C)on4)C[C@@H]32)n1 [Example 179, 4′-{[(1R,6S)-8-(4,6-Dimethylpyrimidin-2-yl)-3,8-diazabicyclo[4.2.0]oct-3-yl]carbonyl}-3′,5-dimethyl-3,5′-biisoxazole]
6500 | 10000 | Cc1cc(C)nc(N2C[C@@H]3CCN(C(=O)c4c(C)noc4-c4snnc4C)C[C@@H]32)n1 [Example 180, (1R,6S)-8-(4,6-Dimethylpyrimidin-2-yl)-3-{[3-methyl-5-(4-methyl-1,2,3-thiadiazol-5-yl)isoxazol-4-yl]carbonyl}-3,8-diazabicyclo[4.2.0]octane]
1300 | 10000 | Cc1cc(C)nc(N2C[C@@H]3CCN(C(=O)c4ncccc4Br)C[C@@H]32)n1 [Example 181, (1R,6S)-3-[(3-Bromopyridin-2-yl)carbonyl]-8-(4,6-dimethylpyrimidin-2-yl)-3,8-diazabicyclo[4.2.0]octane]
1500 | 10000 | Cc1cc(C)nc(N2C[C@@H]3CCN(C(=O)c4ncccc4-n4ccnn4)C[C@@H]32)n1 [Example 182, (1R,6S)-8-(4,6-Dimethylpyrimidin-2-yl)-3-{[3-(1H-1,2,3-triazol-1-yl)pyridin-2-yl]carbonyl}-3,8-diazabicyclo[4.2.0]octane]
9 | 156 | Cc1cc(C)nc(N2C[C@@H]3CCN(C(=O)c4cccc(F)c4-c4cc[nH]n4)C[C@@H]32)n1 [Example 184, (1R,6S)-8-(4,6-Dimethylpyrimidin-2-yl)-3-{[3-fluoro-2-(1H-pyrazol-3-yl)phenyl]carbonyl}-3,8-diazabicyclo[4.2.0]octane]
56 | 600 | Cc1cc(C)nc(N2C[C@@H]3CCN(C(=O)c4cccc(F)c4-c4ncccn4)C[C@@H]32)n1 [Example 185, (1R,6S)-8-(4,6-Dimethylpyrimidin-2-yl)-3-[(3-fluoro-2-pyrimidin-2-ylphenyl)carbonyl]-3,8-diazabicyclo[4.2.0]octane]
680 | 10000 | Cc1cc(N2C[C@@H]3CCN(C(=O)c4cc(F)ccc4-n4nccn4)C[C@@H]32)nc(N)n1 [Example 186, 4-[(1R,6S)-3-{[5-Fluoro-2-(2H-1,2,3-triazol-2-yl)phenyl]carbonyl}-3,8-diazabicyclo[4.2.0]oct-8-yl]-6-methylpyrimidin-2-amine]
310 | 10000 | CNc1nc(C)cc(N2C[C@@H]3CCN(C(=O)c4cc(F)ccc4-n4nccn4)C[C@@H]32)n1 [Example 187, 4-[(1R,6S)-3-{[5-Fluoro-2-(2H-1,2,3-triazol-2-yl)phenyl]carbonyl}-3,8-diazabicyclo[4.2.0]oct-8-yl]-N,6-dimethylpyrimidin-2-amine]
35 | 1300 | Cc1cc(C)nc(N2C[C@@H]3CCN(C(=O)c4cc(F)ccc4-c4ccn(C)n4)C[C@@H]32)n1 [Example 188, (1R,6S)-8-(4,6-Dimethylpyrimidin-2-yl)-3-{[5-fluoro-2-(1-methyl-1H-pyrazol-3-yl)phenyl]carbonyl}-3,8-diazabicyclo[4.2.0]octane]
110 | 4100 | CN(C)c1cc(N2C[C@@H]3CCN(C(=O)c4cc(F)ccc4-n4nccn4)C[C@@H]32)ncn1 [Example 189, 6-[(1R,6S)-3-{[5-Fluoro-2-(2H-1,2,3-triazol-2-yl)phenyl]carbonyl}-3,8-diazabicyclo[4.2.0]oct-8-yl]-N,N-dimethylpyrimidin-4-amine]
1100 | 10000 | CNc1cc(N2C[C@@H]3CCN(C(=O)c4cc(F)ccc4-n4nccn4)C[C@@H]32)ncn1 [Example 190, 6-[(1R,6S)-3-{[5-Fluoro-2-(2H-1,2,3-triazol-2-yl)phenyl]carbonyl}-3,8-diazabicyclo[4.2.0]oct-8-yl]-N-methylpyrimidin-4-amine]
230 | 10000 | Cc1nc(N)cc(N2C[C@@H]3CCN(C(=O)c4cc(F)ccc4-n4nccn4)C[C@@H]32)n1 [Example 191, 6-[(1R,6S)-3-{[5-Fluoro-2-(2H-1,2,3-triazol-2-yl)phenyl]carbonyl}-3,8-diazabicyclo[4.2.0]oct-8-yl]-2-methylpyrimidin-4-amine]
650 | 10000 | O=C(c1cc(F)ccc1-n1nccn1)N1CC[C@H]2CN(c3cc(NC4CC4)ncn3)[C@H]2C1 [Example 194, N-Cyclopropyl-6-[(1R,6S)-3-{[5-fluoro-2-(2H-1,2,3-triazol-2-yl)phenyl]carbonyl}-3,8-diazabicyclo[4.2.0]oct-8-yl]pyrimidin-4-amine]
28 | 16 | Cc1ccc(C(F)(F)F)c(C(=O)N2CC[C@H]3CN(c4ccnc(-c5ccccc5)n4)[C@H]3C2)c1 [Example 195, (5-Methyl-2-(trifluoromethyl)phenyl)((1R,6S)-8-(2-phenylpyrimidin-4-yl)-3,8-diazabicyclo[4.2.0]octan-3-yl)methanone]
